According to patent US20190177371A1, “NOVEL MODULATORS OF MELANOCORTIN RECEPTORS” (ARIZONA BOARD OF REGENTS ON BEHALF OF THE UNIVERSITY OF …, priority 2014, published 2019):

Key:
[1] = molecular target: T1, hMC5R (Homo sapiens, UniProt P33032); experiment: Adenylate cyclase (cAMP) assay in HEK293 cells expressing hMC5R
[2] = molecular target: T2, hMC4R (Homo sapiens, UniProt P32245); experiment: Adenylate cyclase (cAMP) assay in HEK293 cells expressing hMC4R
[3] = molecular target: T3, hMC1R (Homo sapiens, UniProt Q01726); experiment: Adenylate cyclase (cAMP) assay in HEK293 cells expressing hMC1R
[4] = molecular target: T4, hMC3R (Homo sapiens, UniProt P41968); experiment: Adenylate cyclase (cAMP) assay in HEK293 cells expressing hMC3R
[5] = molecular target: T2, hMC4R; experiment: Competitive binding assay with [125I]-NDP-α-MSH on whole HEK293 cells expressing hMC4R
Description: (§1) The pharmacological characterization for the binding efficiencies greater than 70% are defined as competitive binding, binding efficiency less than 70% are non-competitive binding.
(§2) Receptor Binding Assay. Competition binding experiments were carried out using both of cloned cell line and melanoma cells (A375, ATCC). The whole HEK293 cells stably expressing human MC1, MC3, MC4, and MC5 receptors as described before. […] The assay medium was subsequently removed, the cells were washed once with basic medium, and then lysed by the addition of 100 μL of 0.1M NaOH and 100 μL of 1% Triton X-100.

[6] = molecular target: T3, hMC1R; experiment: Competitive binding assay with [125I]-NDP-α-MSH on whole HEK293 cells expressing hMC1R
Description: as §1, §2

[7] = molecular target: T4, hMC3R; experiment: Competitive binding assay with [125I]-NDP-α-MSH on whole HEK293 cells expressing hMC3R
Description: as §1, §2

[8] = molecular target: T1, hMC5R; experiment: Competitive binding assay with [125I]-NDP-α-MSH on whole HEK293 cells expressing hMC5R
Description: as §1, §2

T3 sequence (Q01726 whole entry): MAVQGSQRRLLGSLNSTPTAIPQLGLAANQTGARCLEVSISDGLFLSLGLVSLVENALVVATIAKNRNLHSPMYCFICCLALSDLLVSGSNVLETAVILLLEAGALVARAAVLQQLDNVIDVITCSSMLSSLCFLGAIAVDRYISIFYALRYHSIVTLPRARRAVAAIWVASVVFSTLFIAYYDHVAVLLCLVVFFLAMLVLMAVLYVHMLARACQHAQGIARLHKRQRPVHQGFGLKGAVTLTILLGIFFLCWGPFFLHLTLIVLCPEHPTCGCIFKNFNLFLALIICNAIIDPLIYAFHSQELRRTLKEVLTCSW
T1 sequence (P33032 whole entry): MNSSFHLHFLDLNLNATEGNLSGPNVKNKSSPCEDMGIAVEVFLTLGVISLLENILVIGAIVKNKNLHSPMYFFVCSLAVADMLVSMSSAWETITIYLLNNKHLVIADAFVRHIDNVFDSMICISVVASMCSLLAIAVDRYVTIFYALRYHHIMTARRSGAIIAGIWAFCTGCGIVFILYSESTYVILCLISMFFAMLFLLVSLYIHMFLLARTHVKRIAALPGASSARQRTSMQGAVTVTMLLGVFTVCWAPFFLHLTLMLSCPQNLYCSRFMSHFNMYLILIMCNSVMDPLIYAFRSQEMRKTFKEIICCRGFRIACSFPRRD
T2 sequence (P32245 whole entry): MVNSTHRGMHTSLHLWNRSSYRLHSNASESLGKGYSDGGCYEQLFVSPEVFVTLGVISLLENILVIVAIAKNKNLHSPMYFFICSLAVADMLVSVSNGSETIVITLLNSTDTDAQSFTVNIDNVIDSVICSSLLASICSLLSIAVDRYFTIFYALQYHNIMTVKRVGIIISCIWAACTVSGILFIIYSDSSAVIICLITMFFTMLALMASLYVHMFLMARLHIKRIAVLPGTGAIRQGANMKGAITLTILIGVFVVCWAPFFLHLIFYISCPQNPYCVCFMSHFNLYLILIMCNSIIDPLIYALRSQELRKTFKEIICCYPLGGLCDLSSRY
T4 sequence (P41968 whole entry): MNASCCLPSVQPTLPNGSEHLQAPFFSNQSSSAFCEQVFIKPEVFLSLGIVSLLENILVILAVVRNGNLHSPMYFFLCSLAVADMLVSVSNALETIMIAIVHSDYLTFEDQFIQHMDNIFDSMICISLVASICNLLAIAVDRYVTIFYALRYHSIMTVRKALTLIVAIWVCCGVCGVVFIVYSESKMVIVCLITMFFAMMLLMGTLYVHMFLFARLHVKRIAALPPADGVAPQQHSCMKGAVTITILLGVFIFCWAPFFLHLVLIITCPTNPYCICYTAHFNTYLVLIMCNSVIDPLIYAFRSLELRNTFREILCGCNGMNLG

Row | Substance | functional (cAMP) activity at hMC5R (in words) [1] | functional (cAMP) activity at hMC4R (in words) [2] | functional (cAMP) activity at hMC1R (in words) [3] | functional (cAMP) activity at hMC3R (in words) [4] | binding affinity at hMC4R (in words) [5] | binding affinity at hMC1R (in words) [6] | binding affinity at hMC3R (in words) [7] | binding affinity at hMC5R (in words) [8]
1 | Ac-Nle-c[Asp-(NMe)His-(NMe)nal-Arg-Trp-(NMe)Lys]-NH2 [Peptide 22] | all functional activities are abolished | all functional activities are abolished | all functional activities are abolished | all functional activities are abolished | – | – | – | –
2 | Ac-Nle-c[Asp-(NMe)His-(NMe)nal-Arg-Trp-Lys]-NH2 [Peptide 5] | – | – | – | – | drastical loss of binding affinity | – | – | –
3 | Ac-Nle-c[Asp-(NMe)His-(NMe)nal-Arg-Trp-Lys]-NH2 [Peptide 16] | universal antagonist | universal antagonist | universal antagonist | universal antagonist | – | – | – | –
4 | Ac-Nle-c[Asp-(NMe)His-nal-(NMe)Arg-(NMe)Trp-Lys]-NH2 [Peptide 24] | selective partial agonist activity | – | selective partial agonist activity | – | – | – | – | –
5 | Ac-Nle-c[Asp-(NMe)His-nal-(NMe)Arg-Trp-(NMe)Lys]-NH2 [Peptide 21] | retains agonist activity | – | – | – | – | – | – | –
6 | Ac-Nle-c[Asp-(NMe)His-nal-Arg-(NMe)Trp-(NMe)Lys]-NH2 [Peptide 19] | no activities | no activities | no activities | no activities | good binding | good binding | good binding | good binding
7 | Ac-Nle-c[Asp-(NMe)His-nal-Arg-(NMe)Trp-Lys]-NH2 [Peptide 13] | moderate selective antagonist | – | – | – | – | – | – | –

The remaining lines, values ahead:

Row | functional (cAMP) activity at hMC5R (in words) [1] | functional (cAMP) activity at hMC4R (in words) [2] | functional (cAMP) activity at hMC1R (in words) [3] | functional (cAMP) activity at hMC3R (in words) [4] | binding affinity at hMC4R (in words) [5] | binding affinity at hMC1R (in words) [6] | binding affinity at hMC3R (in words) [7] | binding affinity at hMC5R (in words) [8] | Substance
8 | – | – | selective agonist activities | – | – | – | – | – | Ac-Nle-c[Asp-(NMe)His-nal-Arg-Trp-(NMe)Lys]-NH2 [Peptide 10]
9 | all functional activities are abolished | all functional activities are abolished | all functional activities are abolished | all functional activities are abolished | – | – | – | – | Ac-Nle-c[Asp-His-(NMe)nal-(NMe)Arg-(NMe)Trp-Lys]-NH2 [Peptide 23]
10 | almost a universal antagonist activity | almost a universal antagonist activity | almost a universal antagonist activity | very weak activity | – | – | – | – | Ac-Nle-c[Asp-His-(NMe)nal-(NMe)Arg-Trp-(NMe)Lys]-NH2 [Peptide 20]
11 | – | partial agonistic activities | partial agonistic activities | partial agonistic activities | – | – | – | – | Ac-Nle-c[Asp-His-(NMe)nal-(NMe)Arg-Trp-Lys]-NH2 [Peptide 14]
12 | – | partial agonist | full agonist activity | – | – | – | – | – | Ac-Nle-c[Asp-His-(NMe)nal-Arg-(NMe)Trp-(NMe)Lys]-NH2 [Peptide 18]
13 | very selective antagonist | – | – | – | drastically lost | drastically lost | drastically lost | – | Ac-Nle-c[Asp-His-(NMe)nal-Arg-Trp-(NMe)Lys]-NH2 [Peptide 9]
14 | – | – | potent agonist | potent antagonist | decreases by 3 orders of magnitude | – | increases | – | Ac-Nle-c[Asp-His-nal-(NMe)Arg-Trp-(NMe)Lys]-NH2 [Peptide 8]
15 | selective agonist | – | greater loss of functional activity | – | – | – | – | – | Ac-Nle-c[Asp-His-nal-Arg-(NMe)Trp-Lys]-NH2 [Peptide 3]
